Tests used:
[1] = Displacement of [3H]2-BFI from imidazoline receptor I-2; set-up: species or system Rattus norvegicus
[2] = target: T1, Adrenergic receptor alpha-2 (Rattus norvegicus, UniProt P22086+P19328+P22909); experiment: Displacement of [3H]RX-821002 from alpha-2 adrenergic receptor; format: protein assay
T1 sequence (P22086 whole entry): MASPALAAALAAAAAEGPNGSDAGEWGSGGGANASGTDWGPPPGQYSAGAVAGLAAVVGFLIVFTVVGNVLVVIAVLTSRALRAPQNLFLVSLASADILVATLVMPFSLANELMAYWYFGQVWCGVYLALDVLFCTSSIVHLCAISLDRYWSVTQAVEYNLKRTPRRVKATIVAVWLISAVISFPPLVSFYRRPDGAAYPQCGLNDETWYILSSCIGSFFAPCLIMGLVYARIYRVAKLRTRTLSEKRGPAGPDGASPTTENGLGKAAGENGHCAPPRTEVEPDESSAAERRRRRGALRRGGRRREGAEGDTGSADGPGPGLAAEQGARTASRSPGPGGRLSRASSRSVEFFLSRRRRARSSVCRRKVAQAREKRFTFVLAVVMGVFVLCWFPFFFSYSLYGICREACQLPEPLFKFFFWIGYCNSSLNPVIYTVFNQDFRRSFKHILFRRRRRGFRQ
T1 sequence (P19328 whole entry): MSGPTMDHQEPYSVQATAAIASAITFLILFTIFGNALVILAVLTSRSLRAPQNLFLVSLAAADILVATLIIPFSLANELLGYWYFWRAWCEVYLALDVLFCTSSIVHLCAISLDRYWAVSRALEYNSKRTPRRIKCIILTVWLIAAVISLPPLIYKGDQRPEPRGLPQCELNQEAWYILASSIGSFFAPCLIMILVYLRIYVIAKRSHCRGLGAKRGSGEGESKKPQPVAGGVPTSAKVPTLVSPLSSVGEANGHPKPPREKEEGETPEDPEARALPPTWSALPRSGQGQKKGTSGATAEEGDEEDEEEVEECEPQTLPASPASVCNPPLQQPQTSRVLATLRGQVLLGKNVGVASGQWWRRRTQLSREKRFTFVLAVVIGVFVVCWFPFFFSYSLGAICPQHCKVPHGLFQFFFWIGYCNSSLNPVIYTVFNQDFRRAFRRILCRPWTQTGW
T1 sequence (P22909 whole entry): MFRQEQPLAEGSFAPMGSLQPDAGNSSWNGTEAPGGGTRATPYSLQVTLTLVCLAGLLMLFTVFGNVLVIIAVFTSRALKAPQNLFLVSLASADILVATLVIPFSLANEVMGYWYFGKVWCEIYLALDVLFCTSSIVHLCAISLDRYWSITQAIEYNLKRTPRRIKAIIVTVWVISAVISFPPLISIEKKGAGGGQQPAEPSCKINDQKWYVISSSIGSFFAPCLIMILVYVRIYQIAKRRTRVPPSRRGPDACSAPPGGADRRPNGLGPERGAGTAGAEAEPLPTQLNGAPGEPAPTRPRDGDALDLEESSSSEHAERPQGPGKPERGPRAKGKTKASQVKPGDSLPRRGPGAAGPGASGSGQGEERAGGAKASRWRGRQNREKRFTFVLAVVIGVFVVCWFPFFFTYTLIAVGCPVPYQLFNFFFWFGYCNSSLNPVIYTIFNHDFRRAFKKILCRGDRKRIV

[3] = target: 5-hydroxytryptamine receptor 2A (Rattus norvegicus, UniProt P14842); experiment: Binding affinity for 5-hydroxytryptamine 2A serotonin receptor
Chain of 5-hydroxytryptamine receptor 2A (P14842 whole entry): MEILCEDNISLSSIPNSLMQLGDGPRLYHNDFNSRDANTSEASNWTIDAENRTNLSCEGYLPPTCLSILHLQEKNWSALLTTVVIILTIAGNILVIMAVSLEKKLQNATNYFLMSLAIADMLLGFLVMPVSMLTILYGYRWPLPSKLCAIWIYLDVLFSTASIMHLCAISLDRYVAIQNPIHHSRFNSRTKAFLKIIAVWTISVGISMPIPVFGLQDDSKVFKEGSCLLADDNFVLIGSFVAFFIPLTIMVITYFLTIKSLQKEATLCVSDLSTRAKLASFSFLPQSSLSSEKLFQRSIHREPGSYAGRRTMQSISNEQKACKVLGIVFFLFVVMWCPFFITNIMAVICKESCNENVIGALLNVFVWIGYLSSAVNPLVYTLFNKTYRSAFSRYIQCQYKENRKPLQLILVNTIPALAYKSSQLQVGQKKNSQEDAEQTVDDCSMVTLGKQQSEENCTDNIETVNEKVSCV

Structure (SMILES)	Ki [1]	Ki [2]	IC50 [1]	Ki [3]
COc1ccc2[nH]c3c(c2c1)CCNC3	1640 nM	–	–	–
C1=NCCc2c1[nH]c1ccccc21	7.3 nM	–	–	–
c1ccc2c3c([nH]c2c1)C1=NCCN1CC3	9910 nM	1600 nM	–	–
COc1ccc2c(c1)cc1n2CCNC1	6.2 nM	9550 nM	8280 nM	9930 nM
c1ccc2oc(C3=NCCN3)cc2c1	< 10 nM	–	–	–
COc1ccc2cc3n(c2c1)CCNC3	250 nM	4510 nM	–	–
c1ccc2c(c1)cc1n2CCNC1	6.5 nM	516 nM	–	–
c1ccc2c(c1)nc1n2CCNC1	6790 nM	13400 nM	–	–
COc1ccc2[nH]c3c(c2c1)CCN=C3	480 nM	–	–	–
COc1ccc2c3c([nH]c2c1)C=NCC3 [CGS-19281A]	18 nM	–	–	–
c1ccc2c3c([nH]c2c1)CNCC3 [TRYPTOLINE]	9.4 nM	1600 nM	–	–

Source: ChEMBL document CHEMBL1147440, “Pyrazino[1,2-a]indoles as novel high-affinity and selective imidazoline I(2) receptor ligands” (Bioorg Med Chem Lett, 2004)
